Laboratory results as given in US4923865A, “Substituted 1-(1H-imidazol-4-yl)alkyl-benzamides as anti-ischemics and as alpha-2-adrenergic receptor agonists” (U C B Societe Anonyme, priority 1988, dated 1990).

Tests used:
[1] = test system: stenosis at the level of a coronary artery; assay: Effort trial on a moving belt in dogs with coronary artery stenosis; type: in vivo, dog; details: dose 0.018 μmole/kg i.v.; maximum effort at 12 Km/h for 1 minute
Description: (b) Effort trial on a moving belt. In this test, a group of at least four dogs is used (equipped with intracardiac electrodes), the dogs having an organic stenosis at the level of a coronary artery. This stenosis causes imbalance between the demand and supply of oxygen when the animal is required to make an effort. This imbalance is expressed on the electrocardiogram by an increase in the ST-segment.
In the trial, the dog runs at a speed of 12 km/h on a moving belt having a slope of 15°. This maximum effort is required for one minute. During the trial, the increase in the ST-segment is recorded, together with the natural increase in the pulse rate. The experiment is repeated at least four times, and the mean of the values obtained is taken as reference (100%) for the group of animals. The animals are then allowed to rest for a minimum of 24 hours before being subjected to a new effort trial under the influence of the compound to be studied.
The compound to be studied is administered slowly (over 1 minute) by intravenous injection 5 minutes before the new effort trial. In the course of the latter, the variations in the same parameters are recorded.

cerebral ischemia [2] = assay: General and permanent cerebral ischemia in rat (ligature of the two common carotid arteries); type: in vivo, male Wistar rats; details: 0.76 μg/kg (3.2 nmoles) i.p.; maximum score 17; control 12; P 0.005
Description: (a) General and permanent cerebral ischemia in rat. Male Wistar rats (200 to 250 g) are anesthetized by inhalation of halothane (1 to 5%) contained in a N2 O--O2 (70:30) mixture. The two common carotid arteries are ligatured simultaneously close to the passage between the internal carotid and external carotid using the method described by M. LE PONCIN-LAFITTE et al., J. Pharmacol. (Paris), 14, (1983), 99-102.
The compound to be tested is administered intraperitoneally for a first time 30 minutes before making the ligatures, and subsequently 30 minutes and 270 minutes after making the ligatures. On the next day, and on the day after the next, the neurological deficit in the surviving animals is evaluated by the method described by C. CAPDEVILLE et al., J. Pharmacol. (Paris), 15, (1984), 231-237, and by B. KOLB et al., Neurobehav. Toxicol. Teratol. 7, (1985), 71-78. […] Table III gives for compound A, administered intraperitoneally at a dose of 0.76 μg/kg (3.2 nmoles), the mean of the neurological scores determined for the whole group of surviving animals of the control group and of the treated group, as recorded two days after the ligatures. The statistical significance (P) of the difference observed between these mean values is evaluated by the Mann-Whitney test.

cerebral ischemia [3] = assay: Unilateral, multifocal cerebral ischemia in the rat (microsphere embolization); type: in vivo, male Sprague-Dawley SPF rats
Source text: (b) Unilateral, multifocal cerebral ischemia in the rat. In awake, male Sprague-Dawley SPF rats, aged from 8 to 9 months, a permanent, unilateral cerebral ischemia (or embolization) is caused by introduction of 2000 microspheres (provided by 3M, St. Paul, U.S.A.; diameter 58±2 μm) into the right carotid stream (A. M. BRALET et al., Stroke, 10, (1979), 34-38; M. LE PONCIN-LAFITTE et al., Pathol. Biol. (Paris), 30, (1982), 289-293) after the permanent ligature of the right pterygopalatine artery (Y. KIYOTA et al., Pharmacol. Biochem. Behav. 24, (1986), 687-692).
The compound to be studied is administered for the first time 30 minutes before, and for the second time 30 minutes after embolization, while the control animals receive only a physiological salt solution. The animals are then allowed to rest. After 6 days of recovery, the surviving animals are measured for:
(1) the residual neurological deficit obtained from the test of posture and gait of the animals (Test A, maximum score: 4 points). This test evaluates:
(a) abnormal positioning of the hind paws (S. IRWIN, Psychophamacologia (Berlin), 13, (1968), 222-257);
(b) contralateral inclination of the body during locomotion;
(c) homolateral longitudinal flexion of the body, and
(d) abnormal gait (B. KOLB et al., loc. cit.).
(2) The sensorimotor functions (spontaneous motility, grasping reflex, placing reactions both visual and by loss of support (Test B, maximum score: 10 points); (C. CAPDEVILLE et al., loc. cit.).
(3) The lateralized sensorimotor response (on the contralateral side) (Test C, maximum score: 3 points). This is evaluated by combining the measurements of visual placing reflex, head orientation relfex towards a lateral sensory stimulus, and the cutaneous plantar reflex (C. CAPDEVILLE et al., loc. cit.; J. F. MARSHALL et al., Science (Washington), 174, (1971), 523-525).
(4) Tactile extinction on the left side (Test D, maximum score: 300 points). By contrast with the other tests mentioned above, for which the deficit is lower when the score is higher, the deficit is here more pronounced when the score approaches 300 (T. SCHALLERT et al., Pharmacol. Biochem. Behav. 16, (1982), 455-462).
On the seventh day of recovery, the edema present in various ipsilateral cerebral structures is also measured (M. LE PONCIN-LAFITTE et al., loc. cit.).
Table IV gives the results obtained in tests A to D for compound A, administered intraperitoneally at the dose of 0.76 μg/kg (3.2 nmoles/kg), i.e. The mean of the neurological scores determined for the whole group of surviving animals of the control group and of the treated group after 6 days of recovery. Also indicated in the Table is the mean variation (in g) of body weight measured on the 7th day of recovery. The statistical significant (P) of the difference between the mean values calculated for the control animals and for the treated animals is evaluated by the Mann-Whitney test.
In Table V, the quantity of water (as an average of the percentage) retained in various ipsilateral cerebral structures in the control animals and in the treated animals surviving at the 7th day after embolization, is indicated.

male NMRI mice = assay: Toxicity, Irwin's test (lethal dose); type: in vivo; details: intraperitoneal
Description: 5. Toxicity. The toxicity of the compounds according to the present invention has been determined in male NMRI mice by means of Irwin's test (S. IRWIN, Psychopharmacologia, 13, (1968), 222-257).
Progressive doses of the test compound are administered intraperitoneally to groups of three mice until the lethal dose is reached (dose causing the death of two out of three animals within 48 hours). In Table IX below, the lethal dose in mg/kg found for the compounds of the invention is given. It can be seen from this Table that the compounds of the invention are not very toxic.

For `Cl.NC(=O)c1cccc(Cc2c[nH]cn2)c1O` [A, 2-hydroxyl-3-[(1H-imidazol-4-yl)methyl]-benzamide hydrochloride], which “reduction in ST-segment” value [1] is on record?
Its value is 74%.

And the “reduction in the pulse rate” value [1]?
Its value is 3 beats/min.

And the “Neurological scores after 2 days” value (cerebral ischemia [2])?
The value was 15.

And the weight variation (cerebral ischemia [3]; 0.76 μg/kg i.p., 7th day of recovery, control -5.7, P <0.05)?
The weight variation was “+0.8 g”.

What about the “Mean neurological score 6 days after embolization, test C” value (cerebral ischemia [3]; 0.76 μg/kg i.p., lateralized sensorimotor response, maximum 3 points, control 1.0, P <0.005) of the same compound?
The value was 2.0.

What about the “Mean neurological score 6 days after embolization, test A” value (cerebral ischemia [3]; 0.76 μg/kg i.p., posture and gait, maximum 4 points, control 1.0, P <0.01) of the same compound?
Its value is 2.0.

What about the “Mean neurological score 6 days after embolization, test B” value (cerebral ischemia [3]; 0.76 μg/kg i.p., sensorimotor functions, maximum 10 points, control 7.3, P <0.05) of the same compound?
The value was 8.0.

And the “Mean neurological score 6 days after embolization, test D” value (cerebral ischemia [3]; 0.76 μg/kg i.p., tactile extinction, maximum 300 points, higher = greater deficit, control 243, P <0.05)?
Its value is 96.

And the “Quantity of water in ipsilateral diencephalon” value (cerebral ischemia [3]; 7th day after embolization, control 77.04, P < 0.05)?
The value was 76.32 average %.

What about the “Quantity of water in ipsilateral hippocampus” value (cerebral ischemia [3]; 7th day after embolization, control 80.20, P < 0.05) of the same compound?
The value was 79.79 average %.

What about the “Quantity of water in ipsilateral cortex” value (cerebral ischemia [3]; 7th day after embolization, control 81.33, P < 0.01) of the same compound?
Its value is 80.36 average %.

What about the “Quantity of water in ipsilateral corpus striatum” value (cerebral ischemia [3]; 7th day after embolization, control 81.57, P < 0.005) of the same compound?
Its value is 80.05 average %.

What about the “lethal dose (death of two out of three animals within 48 hours)” value (male NMRI mice) of the same compound?
The value was 760 mg/kg.
